Read-outs that look alike come from different tables or passages of the source.
How the values were obtained:
[1] = test system: CDK19; conditions: read-out: CDK19 IC50; Figure 1; cited from earlier work
[2] = test system: WNT signaling; conditions: read-out: 7dF3 IC50; Figure 1; cited from earlier work
[3] = in vitro; conditions: human, microsomes
[4] = in vitro; conditions: human, Caco-2
[5] = in vitro; conditions: mouse, microsomes
[6] = in vitro; conditions: rat, microsomes
[7] = target: T1, aldehyde oxidase (Homo sapiens, UniProt Q06278); assay: in vitro; conditions: cytosol
T1 sequence (Q06278 whole entry): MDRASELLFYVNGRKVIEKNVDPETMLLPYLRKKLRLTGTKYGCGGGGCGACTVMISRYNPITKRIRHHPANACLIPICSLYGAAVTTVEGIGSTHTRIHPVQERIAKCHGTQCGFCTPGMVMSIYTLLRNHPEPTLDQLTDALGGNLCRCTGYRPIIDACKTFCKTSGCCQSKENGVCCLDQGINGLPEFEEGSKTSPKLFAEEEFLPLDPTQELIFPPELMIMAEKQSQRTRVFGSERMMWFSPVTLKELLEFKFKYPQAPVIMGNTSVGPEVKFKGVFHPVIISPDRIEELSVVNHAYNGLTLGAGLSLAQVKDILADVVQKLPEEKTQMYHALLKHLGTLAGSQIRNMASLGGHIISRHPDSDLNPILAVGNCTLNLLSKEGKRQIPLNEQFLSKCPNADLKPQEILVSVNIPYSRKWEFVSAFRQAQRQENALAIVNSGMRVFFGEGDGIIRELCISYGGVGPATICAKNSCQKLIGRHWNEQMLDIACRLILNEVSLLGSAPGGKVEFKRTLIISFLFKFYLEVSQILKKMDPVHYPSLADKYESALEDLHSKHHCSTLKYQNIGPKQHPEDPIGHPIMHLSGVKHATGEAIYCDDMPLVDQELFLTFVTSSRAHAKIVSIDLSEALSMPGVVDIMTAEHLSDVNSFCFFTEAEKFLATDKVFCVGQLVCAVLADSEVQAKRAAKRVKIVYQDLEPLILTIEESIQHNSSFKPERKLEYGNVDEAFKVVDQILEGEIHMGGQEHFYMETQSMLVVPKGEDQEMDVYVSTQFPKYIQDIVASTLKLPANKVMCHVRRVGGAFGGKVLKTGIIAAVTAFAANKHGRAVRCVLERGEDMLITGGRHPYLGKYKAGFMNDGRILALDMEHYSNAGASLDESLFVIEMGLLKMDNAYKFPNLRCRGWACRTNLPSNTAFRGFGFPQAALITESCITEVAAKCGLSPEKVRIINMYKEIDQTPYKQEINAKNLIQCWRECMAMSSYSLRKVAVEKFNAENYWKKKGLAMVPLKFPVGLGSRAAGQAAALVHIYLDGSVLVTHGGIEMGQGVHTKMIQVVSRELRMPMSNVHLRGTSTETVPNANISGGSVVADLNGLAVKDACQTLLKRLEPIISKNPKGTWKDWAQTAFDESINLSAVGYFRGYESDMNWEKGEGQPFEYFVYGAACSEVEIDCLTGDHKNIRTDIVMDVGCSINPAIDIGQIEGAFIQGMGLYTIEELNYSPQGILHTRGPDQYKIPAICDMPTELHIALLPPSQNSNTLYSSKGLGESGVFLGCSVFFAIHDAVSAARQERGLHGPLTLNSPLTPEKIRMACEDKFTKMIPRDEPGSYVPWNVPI

[8] = mouse
[9] = target: T1, aldehyde oxidase; conditions: for % of parent compd remaining after 45 min: human, cytosol, 0.75 h, 1 µM
[10] = human
[11] = test system: WNT signaling; conditions: for fold less active in the cell-based assay: relative to 4; for drop off in the cell-based assay: cell-based versus CDK8 affinity
[12] = test system: WNT signaling; assay: cells; conditions: 7dF3, read-out: 7dF3 IC50
[13] = test system: Caco-2; conditions: human
[14] = target: CDK8 (Homo sapiens, UniProt P49336); assay type: binding; conditions: versus parent analogue
Sequence of CDK8 (P49336 whole entry): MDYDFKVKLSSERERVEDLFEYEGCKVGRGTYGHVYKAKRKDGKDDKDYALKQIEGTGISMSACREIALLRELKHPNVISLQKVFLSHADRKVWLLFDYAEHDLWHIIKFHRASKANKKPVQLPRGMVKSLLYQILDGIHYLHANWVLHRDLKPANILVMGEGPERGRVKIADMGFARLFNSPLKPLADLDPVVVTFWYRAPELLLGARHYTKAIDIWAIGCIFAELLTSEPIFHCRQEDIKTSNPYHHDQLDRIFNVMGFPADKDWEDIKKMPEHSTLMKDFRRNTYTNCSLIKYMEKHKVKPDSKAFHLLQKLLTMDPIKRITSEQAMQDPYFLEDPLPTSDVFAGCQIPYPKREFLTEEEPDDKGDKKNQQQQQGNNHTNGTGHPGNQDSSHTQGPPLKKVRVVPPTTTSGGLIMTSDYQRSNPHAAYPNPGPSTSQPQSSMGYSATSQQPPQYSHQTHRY
Sequence of CDK8 (P24863 whole entry, further chain): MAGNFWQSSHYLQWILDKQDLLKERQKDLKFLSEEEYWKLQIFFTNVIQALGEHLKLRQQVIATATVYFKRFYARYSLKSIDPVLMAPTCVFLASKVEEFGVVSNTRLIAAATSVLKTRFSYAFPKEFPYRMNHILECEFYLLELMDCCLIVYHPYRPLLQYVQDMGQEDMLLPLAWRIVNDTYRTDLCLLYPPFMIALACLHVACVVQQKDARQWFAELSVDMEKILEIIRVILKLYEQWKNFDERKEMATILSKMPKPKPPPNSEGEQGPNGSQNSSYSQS

Row | SMILES | microsomal CLint at 1 µM [3] [µL/min/mg] | microsomal CLint at 1 µM [5] [µL/min/mg] | microsomal CLint at 1 µM [6] [µL/min/mg] | % of parent compd remaining after 45 min [9] [%] | IC50 [12] [nM] | further results
1 | Cn1cc(-c2ccc(-c3cncc(Cl)c3N3CCC4(CCNC4=O)CC3)cc2)cn1 [Compound 1] | – | – | – | – | – | IC50 [1]: 6 ± 1 nM; IC50 [2]: 5 ± 1 nM
2 | Cn1ncc2cc(-c3cnc(N)c(Cl)c3N3CCC4(CCNC4=O)CC3)ccc21 [Compound 2] | – | – | – | – | – | IC50 [1]: 2.6 ± 0.4 nM; IC50 [2]: 11.8 ± 17.9 nM
3 | CNC(=O)c1ccc2cncc(-c3ccc4c(c3)CS(=O)(=O)N4C)c2n1 [Compound 7] | 15 | 76 | 142 | – | – | Papp A→B [4]: 38.3 ×10⁻⁶ cm/s; efflux ratio [4]: 1.02; CLint scaled at 1 µM [7]: 598 mL/min/kg; F ([8]; Balb/C, in vivo): 16%; Vss ([8]; Balb/C, in vivo): 2.7 L/kg; in vivo clearance [8]: exceeded liver blood flow; AO substrate (Enzyme assay) [9]: Yes
4 | CNC(=O)c1ccc2cncc(-c3ccc4c(c3)CS(=O)(=O)N4)c2n1 [Compound 8] | – | 23 | 21 | 20 | – | microsomal CLint [3]: < 10 µL/min/mg; Papp A→B [4]: 5.94 ×10⁻⁶ cm/s; efflux ratio [4]: 7.26; main metabolite [10]: oxidation to give the C5-OH compound 37 as the main metabolite; in vivo clearance [8]: exceeded liver blood flow; Cl ([8]; in vivo): Not measurable; F ([8]; in vivo): Not measurable; Vd ([8]; in vivo): Not measurable
5 | Cn1cc(-c2ccc(-c3cncc4ccc(C(=O)N5CCNCC5)nc34)cc2)cn1 [Compound 17] | 36 | 15 | 525 | – | – | Vss ([8]; Balb/C, in vivo): 5.8 L/kg; in vivo clearance [8]: exceeded liver blood flow
6 | CC(=O)Nc1ccc2cncc(-c3ccc(-c4cnn(C)c4)cc3)c2n1 [Compound 18] | 26 | 168 | 247 | – | – | fold less active in the cell-based assay [11]: 10 fold
7 | Cn1cc(-c2ccc(-c3cncc4ccc(N5CCCC5=O)nc34)cc2)cn1 [Compound 19] | 143 | 392 | 253 | – | – | fold less active in the cell-based assay [11]: 10 fold; CLint scaled at 1 µM [7]: 418 mL/min/kg
8 | Cn1cc(-c2ccc(-c3cncc4ccc(-c5ncco5)nc34)cc2)cn1 [Compound 25] | 48 | 200 | 796 | 0 | – | CLint scaled at 1 µM [7]: 367 mL/min/kg
9 | Cn1cc(-c2ccc(-c3cncc4ccc(-c5nccn5C)nc34)cc2)cn1 [Compound 26] | 335 | 661 | – | – | – | microsomal CLint [6]: > 1000 µL/min/mg; CLint scaled at 1 µM [7]: > 1000 mL/min/kg; AO substrate (Enzyme assay) [9]: Yes
10 | Cn1cc(-c2ccc(-c3cncc4ccc(C(=O)N5CC(F)(F)C5)cc34)cc2)cn1 [Compound 30] | 470 | 321 | 207 | 0 | – | –
11 | CC(=O)Nc1ccc2cncc(-c3ccc(-c4cnn(C)c4)cc3)c2c1 [Compound 31] | 26 | 200 | 90 | – | – | AO substrate (Enzyme assay) [9]: Yes
12 | Cn1cc(-c2ccc(-c3cncc4ccc(-c5ncco5)cc34)cc2)cn1 [Compound 32] | 81 | 129 | 96 | 3 | – | –
13 | Cn1cc(-c2ccc(-c3cncc4ccc(N5CCOC5=O)cc34)cc2)cn1 [Compound 34] | 66 | 380 | 102 | – | – | AO substrate (Enzyme assay) [9]: Yes
14 | Cn1cc(-c2ccc(-c3cncc4ccc(N5CCCS5(=O)=O)cc34)cc2)cn1 [Compound 35] | 54 | 213 | 81 | – | – | drop off in the cell-based assay [11]: 7 fold
15 | Cn1cc(-c2ccc(-c3cncc4ccc(S(N)(=O)=O)cc34)cc2)cn1 [Compound 36] | 47 | 125 | 220 | – | – | drop off in the cell-based assay [11]: 12 fold
16 | CNC(=O)c1ccc2c(N)ncc(-c3ccc4c(c3)CS(=O)(=O)N4)c2n1 [Compound 37] | – | – | – | 100 | 9600 ± 2430 | –
17 | COC1CN(C(=O)c2ccc3cncc(-c4ccc(-c5cnn(CC(C)(C)O)c5)cc4)c3n2)C1 [Compound 38] | – | – | – | 0 | 2.8 ± 0.7 | –
18 | COC1CN(C(=O)c2ccc3cncc(-c4ccc5c(cnn5CC(C)(C)O)c4)c3n2)C1 [Compound 39] | – | – | – | 0 | 225 ± 76 | –
19 | COC1CN(C(=O)c2ccc3cncc(-c4ccc5nn(CC(C)(C)O)cc5c4)c3n2)C1 [Compound 40] | – | – | – | 0 | 17.9 ± 5.5 | –
20 | COC1CN(C(=O)c2ccc3cncc(-c4ccc(-c5cnn(CC(C)(C)O)c5)cc4)c3c2)C1 [Compound 41] | – | – | – | 0 | 13.2 ± 15.2 | –
21 | CC(C)(O)Cn1cc(-c2ccc(-c3cncc4ccc(C(N)=O)cc34)cc2)cn1 [Compound 42] | – | – | – | 7 | 0.6 ± 0.2 | –
22 | COC1CN(C(=O)c2ccc3cncc(-c4ccc5c(cnn5CC(C)(C)O)c4)c3c2)C1 [Compound 43] | – | – | – | 2 | 921 ± 148 | –
23 | COC1CN(C(=O)c2ccc3cncc(-c4ccc5nn(CC(C)(C)O)cc5c4)c3c2)C1 [Compound 44] | – | – | – | 0 | 92.7 ± 41.1 | –
24 | CNC(=O)c1ccc2c(OC)ncc(-c3ccc4c(c3)CS(=O)(=O)N4)c2n1 [Compound 45] | – | – | – | – | > 30000 | –
25 | CNC(=O)c1ccc2c(N)ncc(-c3ccc4c(c3)CS(=O)(=O)N4C)c2n1 [Compound 48] | – | – | – | – | 9.3 ± 2.3 | microsomal CLint [3]: 18 µL/min/mg; microsomal CLint [5]: 94 µL/min/mg; microsomal CLint [6]: 24 µL/min/mg; CLint scaled at 1 µM [7]: 15 mL/min/kg; Cl ([8]; Balb/C, in vivo): 213 mL/min/kg; F ([8]; Balb/C, in vivo): 29%; Vss ([8]; Balb/C, in vivo): 5.64 L/kg; AO substrate (Enzyme assay) [9]: No
26 | Cn1cc(-c2ccc(-c3cnc(N)c4ccc(C(=O)N5CCNCC5)nc34)cc2)cn1 [Compound 49] | – | 36 | – | – | – | microsomal CLint [3]: < 10 µL/min/mg; microsomal CLint [6]: < 10 µL/min/mg; Caco-2 ER [13]: 145; Caco-2 PappA-B [13]: 0.96 × 10^–6 cm/s; CLint scaled at 1 µM [7]: < 4.2 mL/min/kg; Cl ([8]; Balb/C, in vivo): 58.5 mL/min/kg; F ([8]; Balb/C, in vivo): <5%; Vss ([8]; Balb/C, in vivo): 2.49 L/kg
27 | Cn1cc(-c2ccc(-c3cnc(N)c4ccc(-c5nccn5C)nc34)cc2)cn1 [Compound 57] | – | – | – | – | – | drop in CDK8 affinity [14]: 225 fold
28 | Cn1cc(-c2ccc(-c3cnc(N)c4ccc(C(=O)NC5CC5)cc34)cc2)cn1 [Compound 64] | 16 | 39 | 22 | – | – | Caco-2 ER [13]: 13.2; Caco-2 PappA-B [13]: 32.5 × 10^–6 cm/s; AO substrate (Enzyme assay) [9]: No
29 | Cn1cc(-c2ccc(-c3cnc(N)c4ccc(N5CCOC5=O)cc34)cc2)cn1 [Compound 65] | 14 | 66 | 19 | – | – | Caco-2 ER [13]: 16.2; Caco-2 PappA-B [13]: 20.6 × 10^–6 cm/s; AO substrate (Enzyme assay) [9]: No
